Results published in patent US8470803B2, “Boron-containing small molecules” (Anacor Pharmaceuticals, Inc., priority 2008, dated 2013).

Assays:
[1] = system: T1, PDE4 partially purified from human U-937 myeloid leukemia cells; test: PDE4 assay ([3H]cAMP hydrolysis); assay type: biochemical; settings: PDE4 from U-937 cells, 1 mM cAMP, pH 7.5, 20 minutes at 25° C.
T1 construct: PDE4 partially purified from human U-937 myeloid leukemia cells was used
Description: PDE4 partially purified from human U-937 myeloid leukemia cells was used. Test article and/or vehicle was incubated with 0.2 mg enzyme and 1 mM cAMP containing 0.01 mM [3H]cAMP in Tris buffer pH 7.5 for 20 minutes at 25° C. The reaction was terminated by boiling for 2 minutes and the resulting AMP is converted to adenosine by addition of 10 mg/ml snake venom nucleotidase and further incubation at 37° C. for 10 minutes. Unhydrolyzed cAMP is bound to AG1-X2 resin, and remaining [3H]Adenosine in the aqueous phase is quantitated by scintillation counting.

IL-γ = test: Cytokine assay: IFNγ (IL-γ [sic]) release, PHA-induced PBMC; assay type: cell-based; settings: human PBMC, 20 ug/mL PHA, 24 hours
Description: (§1) Frozen human peripheral blood mononucleocytes (PBMC) were thawed and centrifuged. Cryopreservation media was aspirated off of the cell pellet, and the cells were resuspended in fresh culture media (CM) comprising RPMI 1640 and 10% FBS in 96 well plates. Test article was dissolved in DMSO to form a 10 mM sample (DMSO, 100%). The 10 mM samples were diluted to 100 μM in CM (DMSO, 1%), then further diluted to 10, 1, 0.1, 0.01 μM in 200 μL of CM (n=3). Inducer (1 μg/mL) LPS for TNF-α or 20 ug/mL PHA for IFNγ, IL-2, IL-4, IL-5 and IL-10. IL-23 was induced with 100 ng/ml IFN-g+[…], using THP-1 cells. Vehicle (1% DMSO) was used as a control for this experiment. Vehicle without inducer was used as a negative control. Cells were incubated at 37° C., 5% CO2. Supernatants were extracted at 24 hours (for TNF-α, IL-2 and IFNγ) and 48 hours (for IL-4, IL-5, IL-10 and IL-23), and stored at −20° C. Supernatants were thawed and assayed for cytokine expression using the fluorochrome-labeled cytokine-specific beads and a BD FACSArray™. IL-23 was assayed using a commercial ELISA kit (R&D Systems).

TNF-α = test: Cytokine assay: TNF-α release, LPS-induced PBMC; assay type: cell-based; settings: human PBMC, 1 μg/mL LPS, supernatant at 24 hours
Description: as §1

IL-10 = test: Cytokine assay: IL-10 release, PHA-induced PBMC; assay type: cell-based; settings: human PBMC, 20 ug/mL PHA, 48 hours
Description: as §1

IL-4 = test: Cytokine assay: IL-4 release, PHA-induced PBMC; assay type: cell-based; settings: human PBMC, 20 ug/mL PHA, 48 hours
Description: as §1

IL-5 = test: Cytokine assay: IL-5 release, PHA-induced PBMC; assay type: cell-based; settings: human PBMC, 20 ug/mL PHA, 48 hours
Description: as §1

IL-2 = test: Cytokine assay: IL-2 release, PHA-induced PBMC; assay type: cell-based; settings: human PBMC, 20 ug/mL PHA, 24 hours
Description: as §1

IL-23 = test: Cytokine assay: IL-23 release, IFN-g + LPS induced THP-1 cells; assay type: cell-based; settings: Homo sapiens, 100 ng/ml IFN-g + 1 mg/ml LPS, 48 hours, ELISA
Description: as §1

K-ATP channel = K-ATP channel (SUR) binding; cited from earlier work

| Structure (SMILES) | IC50 [1] | IC50 (IL-γ) | IC50 (TNF-α) | IC50 (IL-10) | IC50 (IL-4) | IC50 (IL-5) | IC50 (IL-2) | IC50 (IL-23) | pKi (K-ATP channel) |
| --- | --- | --- | --- | --- | --- | --- | --- | --- | --- |
| CC(C)(C)OC(=O)N(c1ccc(C#N)cc1)c1ccc2c(c1)COB2O [C1, 5-[N-tert-Butoxycarbonyl-(4-cyanophenylamino)]-1,3-dihydro-1-hydroxybenzoxaborole] | 2750 nM | 620 nM | 1100 nM | 5590 nM | > 10000 nM | 2420 nM | 960 nM |  |  |
| N#Cc1ccc(Nc2ccc3c(c2)COB3O)cc1 [C2, 5-(4-Cyanophenylamino)-1,3-dihydro-1-hydroxybenzoxaborole] | 414 nM | 1510 nM | 1080 nM | > 10000 nM | > 10000 nM | 6830 nM | 130 nM | 7350 nM |  |
| CN(c1ccc(C#N)cc1)c1ccc2c(c1)COB2O [C3, 5-[N-(4-Cyanophenyl)-N-methylamino]-1,3-dihydro-1-hydroxybenzoxaborole] | 387 nM | 2000 nM | 1300 nM | 3100 nM | > 10000 nM | 3500 nM | 880 nM |  |  |
| CC1=NS(=O)(=O)c2cc(Cl)ccc2N1 [diazoxide] |  |  |  |  |  |  |  |  | 3.8 |

More lines, main results first:

| IC50 [1] | IC50 (IL-γ) | IC50 (TNF-α) | IC50 (IL-10) | IC50 (IL-4) | IC50 (IL-5) | IC50 (IL-2) | IC50 (IL-23) | Structure (SMILES) | pKi (K-ATP channel) |
| --- | --- | --- | --- | --- | --- | --- | --- | --- | --- |
| 180 nM | 370 nM | 360 nM | 6000 nM | 33000 nM | 400 nM | 220 nM | 5770 nM | COc1nc(N(C(=O)OC(C)(C)C)c2ccc3c(c2)COB3O)ccc1C#N [C4, tert-Butyl 5-cyano-6-methoxypyridin-2-yl(1-hydroxy-1,3-dihydrobenzo[c][1,2]oxaborol-5-yl)carbamate] |  |
| 340 nM | 300 nM | 260 nM | 3700 nM | 23000 nM | 700 nM | 210 nM | 2740 nM | COc1nc(Nc2ccc3c(c2)COB3O)ccc1C#N [C5, 6-(1-hydroxy-1,3-dihydrobenzo[c][1,2]oxaborol-5-ylamino)-2-methoxynicotinonitrile] |  |
